One assay has as its system Pan-02 pancreatic tumors. As to the kind of experiment: Solid stress (tumor opening technique). The arrangement: species or system C57BL/6 mouse. Particulars: mouse, in vivo. The text has this: FIG. 25 is a bar graph showing that angiotensin inhibitors decrease stress in multiple tumor models. Solid stress levels in tumors after angiotensin inhibition using losartan are shown. […] Animal numbers n=10-11 (4T1 stress), n=4-8 (Pan-02 stress).
The mechanism responsible for the increase in tumor vessel perfusion by losartan was investigated. Desmoplasia, high stromal cell and matrix density, is a major contributor to the solid stress accumulation that compresses vessels (Stylianopoulos T, et al., Growth-induced mechanical stress in murine and human tumors: causes, consequences and remedies. under review. 2012). […] Moreover, losartan decreased collagen I concentration, measured based on staining intensity, in E0771 and AK4.4 tumors (FIGS. 24B-24C). […] Next, solid stress in these tumors was measured using recently established technique described in Stylianopoulos T, et al., Growth-induced mechanical stress in murine and human tumors: causes, consequences and remedies. under review. […]
Solid stress: Solid stress was measured using the tumor opening technique as described previously (Stylianopoulos T, et al., Growth-induced mechanical stress in murine and human tumors: causes, consequences and remedies. under review. 2012). […] Subsequently, each tumor was excised, washed with Hanks' Balanced Salt Solution (HBSS) and its three dimensions were measured. […]

For assay [1], the system named is E0771 tumors. As to the kind of experiment: Mathematical analysis of perfused vessel network (multiphoton microscopy). The assay is classed as in vivo, mice.
In assay [2] the test system is E0771 tumors. Nature of the assay: Hypoxic fraction by pimonidazole staining. The arrangement: species or system mice. The settings on record: mouse, in vivo. On the procedure: Losartan decreases the hypoxic fraction in E0771 tumors (P=0.027, Student's t-test) due to the increase in oxygen delivery.
Oxygenation was then studied using phosphorescence quenching microscopy. […] This decrease in tumor hypoxia was confirmed by using pimonidazole staining (FIGS. 29D and 30). To determine if losartan also increases nanomedicine delivery, which is dependent on both vascular supply and penetration across vessel walls into tumor tissue, nanoparticle penetration was measured using intravital multiphoton microscopy. Nanoparticle penetration rates were quantified as transvascular mass flux per unit vascular surface area and transvascular concentration difference, termed as the effective permeability. […] Penetration rates are largely dependent on fluid flow through the viscoelastic and tortuous tumor interstitium, which is a function of interstitial hydraulic conductivity. It was determined that losartan also increases the hydraulic conductivity of E0771 tumors (FIG. 31), likely through its anti-matrix effects, and a mathematical model (Chauhan V P, et al., Nature Nanotechnology. 2012; advance online publication) was used to confirm that this can improve the penetration rate of all sizes of nanomedicines (FIG. 32). Thus, “microenvironmental normalization” with ARBs and ACE-Is increases the delivery of oxygen and all sizes of therapeutics to tumors. […]

Regarding `CCCCc1nc(Cl)c(CO)n1Cc1ccc(-c2ccccc2-c2nn[nH]n2)cc1` [losartan], in the assay with Pan-02 pancreatic tumors, the solid stress result is “reduces solid stress”. In the assay with E0771 tumors [1] (from a typical 1.89 in tumors toward 2.0 of normal capillary beds), the “fractal dimension of vessel network” value was “increases”. In addition, the “maximum distance drugs and oxygen must travel to reach tumor cells” value in the assay on E0771 tumors [1] (pre- and post-treatment (days 2-5)) is recorded as “decreases”. In addition, in the assay with E0771 tumors [2], the hypoxic fraction result is “decreases”.

(Values after patent US20130287688A1, “NOVEL COMPOSITIONS AND USES OF ANTI-HYPERTENSION AGENTS FOR CANCER THERAPY” (XTUIT PHARMACEUTICALS, INC., priority 2010, published 2013).)
